Measured values: ChEMBL document CHEMBL3045191, “Effect of soil type on adsorption-desorption, mobility, and activity of the herbicide norflurazon” (J Agric Food Chem, 2004)

Legend:
Format in all cases: functional, organism-based
[1] = tested on: Glycine max; assay: Herbicidal activity against Glycine max (soybean) grown in clay soil at pH 8.0 assessed as chlorophyll bleaching effect on shoots compound treated to soil measured after 10 days relative to untreated control
[2] = tested on: Glycine max; assay: Herbicidal activity against Glycine max (soybean) grown in sandy soil at pH 8.0 assessed as chlorophyll bleaching effect on shoots compound treated to soil measured after 10 days relative to untreated control
[3] = tested on: Glycine max; assay: Herbicidal activity against Glycine max (soybean) grown in loam soil at pH 5.8 assessed as chlorophyll bleaching effect on shoots compound treated to soil measured after 10 days relative to untreated control
[4] = tested on: Glycine max; assay: Herbicidal activity against Glycine max (soybean) grown in slit loam soil at pH 6.0 assessed as chlorophyll bleaching effect on shoots compound treated to soil measured after 10 days relative to untreated control
[5] = tested on: Glycine max; assay: Herbicidal activity against Glycine max (soybean) grown in slit loam soil at pH 7.6 assessed as chlorophyll bleaching effect on shoots compound treated to soil measured after 10 days relative to untreated control
[6] = tested on: Glycine max; assay: Herbicidal activity against Glycine max (soybean) grown in loam soil at pH 5.5 assessed as chlorophyll bleaching effect on shoots compound treated to soil measured after 10 days relative to untreated control
[7] = tested on: Glycine max; assay: Herbicidal activity against Glycine max (soybean) grown in sandy clay loam soil at pH 5.7 assessed as chlorophyll bleaching effect on shoots compound treated to soil measured after 10 days relative to untreated control
[8] = tested on: Glycine max; assay: Herbicidal activity against Glycine max (soybean) grown in sandy clay loam soil at pH 7.9 assessed as chlorophyll bleaching effect on shoots compound treated to soil measured after 10 days relative to untreated control

CNc1cnn(-c2cccc(C(F)(F)F)c2)c(=O)c1Cl [NORFLURAZONE]
IC50 [1]: 1.04 mg/kg
IC50 [2]: 0.08 mg/kg
IC50 [3]: 1.98 mg/kg
IC50 [4]: 1.94 mg/kg
IC50 [5]: 1.68 mg/kg
IC50 [6]: 0.87 mg/kg
IC50 [7]: 0.43 mg/kg
IC50 [8]: 0.22 mg/kg
